Measured values from patent US20240059691A1 (KALVISTA PHARMACEUTICALS LIMITED, priority 2020, published 2024).

Key:
FXa = FXa (Homo sapiens (Human), UniProt P00742); assay: Determination of related protease inhibition: FXa (fluorogenic substrate at Km); assay type: biochemical; conditions: 25° C.
Procedure, shortened: (§1)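 Human enzymes incubated with varied inhibitor concentrations and fluorogenic substrate at Km. Fluorescence release followed over 5 min at 25 °C; linear rate expressed as % activity, IC50 as inhibitor concentration giving 50% inhibition of uninhibited enzyme.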

FXIa = FXIa (Homo sapiens (Human), UniProt P03951); assay: Determination of related protease inhibition: FXIa (fixed substrate concentration of 100 μM); assay type: biochemical; conditions: 25° C.
Sequence of FXIa (P03951 388-625): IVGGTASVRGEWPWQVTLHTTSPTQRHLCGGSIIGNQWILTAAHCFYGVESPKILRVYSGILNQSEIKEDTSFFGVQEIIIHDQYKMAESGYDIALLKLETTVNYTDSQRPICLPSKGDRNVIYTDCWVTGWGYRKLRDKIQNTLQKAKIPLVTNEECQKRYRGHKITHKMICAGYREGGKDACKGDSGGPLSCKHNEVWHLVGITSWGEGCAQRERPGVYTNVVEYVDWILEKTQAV
Sequence of FXIa (P03951 19-387 partner): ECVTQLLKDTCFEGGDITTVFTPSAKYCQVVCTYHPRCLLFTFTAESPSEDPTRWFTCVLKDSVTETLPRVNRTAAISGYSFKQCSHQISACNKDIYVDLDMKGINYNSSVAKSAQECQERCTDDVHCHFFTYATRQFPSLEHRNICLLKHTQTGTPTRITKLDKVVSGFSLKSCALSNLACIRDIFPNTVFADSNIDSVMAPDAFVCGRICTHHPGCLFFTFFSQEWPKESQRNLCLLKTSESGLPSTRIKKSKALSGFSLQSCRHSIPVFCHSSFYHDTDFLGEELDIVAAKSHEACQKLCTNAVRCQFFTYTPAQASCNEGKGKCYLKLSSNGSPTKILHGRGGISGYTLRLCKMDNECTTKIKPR
Protocol: Determination of Related Protease Inhibition
In vitro inhibition of related proteases was determined using an ([…] assay based on standard literature methods (see e.g. Shori et al., Biochem. Pharmacol., 1992, 43, 1209; Bouckaert et al., European Journal of Medicinal Chemistry 110 (2016) 181). Human serine protease enzymes Plasma Kallikrein, KLK1, FXa, Plasmin, Thrombin and Trypsin were assayed for enzymatic activity using an appropriate fluorogenic substrate at Km concentration, FXIa at fixed substrate concentration of 100 μM, and various concentrations of the test compound. Protease activity was measured by monitoring the accumulation of liberated fluorescence from the substrate over […]. The linear rate of fluorescence increase per minute was expressed as percentage (%) activity. IC50 values were calculated as the concentration of inhibitor giving 50% inhibition of the uninhibited enzyme activity (100%).

Plasma Kallikrein = Plasma Kallikrein (Homo sapiens (Human), UniProt P03952); assay: Determination of related protease inhibition: Plasma Kallikrein (fluorogenic substrate at Km); assay type: biochemical; conditions: 25° C., read-out: IC50 (human PKal)
Sequence of Plasma Kallikrein (P03952 391-638): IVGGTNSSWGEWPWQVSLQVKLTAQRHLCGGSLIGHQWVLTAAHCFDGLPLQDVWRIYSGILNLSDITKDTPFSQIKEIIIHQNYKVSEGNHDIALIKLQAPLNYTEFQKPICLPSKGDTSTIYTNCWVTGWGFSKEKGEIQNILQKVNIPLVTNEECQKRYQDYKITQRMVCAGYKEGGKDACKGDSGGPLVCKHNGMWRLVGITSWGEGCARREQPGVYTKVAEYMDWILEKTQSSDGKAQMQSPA
Sequence of Plasma Kallikrein (P03952 20-390 partner): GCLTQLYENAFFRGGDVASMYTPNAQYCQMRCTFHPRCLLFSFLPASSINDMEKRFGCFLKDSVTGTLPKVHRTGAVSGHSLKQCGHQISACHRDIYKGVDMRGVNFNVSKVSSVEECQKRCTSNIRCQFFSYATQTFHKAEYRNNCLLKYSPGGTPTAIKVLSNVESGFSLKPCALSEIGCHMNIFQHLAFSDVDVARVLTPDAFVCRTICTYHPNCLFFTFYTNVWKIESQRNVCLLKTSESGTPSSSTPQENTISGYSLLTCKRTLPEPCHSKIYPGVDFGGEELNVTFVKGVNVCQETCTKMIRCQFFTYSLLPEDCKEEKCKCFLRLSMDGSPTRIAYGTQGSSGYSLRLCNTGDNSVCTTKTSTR
Procedure, shortened: as §1

KLK1 = KLK1 (Homo sapiens (Human), UniProt P06870); assay: Determination of related protease inhibition: KLK1 (fluorogenic substrate at Km); assay type: biochemical; conditions: 25° C.
Sequence of KLK1 (P06870 25-262): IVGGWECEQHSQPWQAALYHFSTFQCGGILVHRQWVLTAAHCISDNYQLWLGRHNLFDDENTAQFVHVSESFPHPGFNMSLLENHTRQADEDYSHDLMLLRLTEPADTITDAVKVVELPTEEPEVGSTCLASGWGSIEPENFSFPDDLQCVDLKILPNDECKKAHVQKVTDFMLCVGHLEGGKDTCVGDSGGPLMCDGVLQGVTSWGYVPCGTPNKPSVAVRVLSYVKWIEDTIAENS
Procedure, shortened: as §1

Thrombin = Thrombin (Homo sapiens (Human), UniProt P00734); assay: Determination of related protease inhibition: Thrombin (fluorogenic substrate at Km); assay type: biochemical; conditions: 25° C.
Procedure, shortened: as §1

Human Factor XIIa = Human Factor XIIa (Homo sapiens (Human), UniProt P00748); assay: Determination of FXIIa inhibition (fluorogenic substrate H-DPro-Phe-Arg-AFC, IC50 assay); assay type: biochemical; conditions: substrate H-DPro-Phe-Arg-AFC at Km, 25° C.; class scale A-G
Sequence of Human Factor XIIa (P00748 373-615): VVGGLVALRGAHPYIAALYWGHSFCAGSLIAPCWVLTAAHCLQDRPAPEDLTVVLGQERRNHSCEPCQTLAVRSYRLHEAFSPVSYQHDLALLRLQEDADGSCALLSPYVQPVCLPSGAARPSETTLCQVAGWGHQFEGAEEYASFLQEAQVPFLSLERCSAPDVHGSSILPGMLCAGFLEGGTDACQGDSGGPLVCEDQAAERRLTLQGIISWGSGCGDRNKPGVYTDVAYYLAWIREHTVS
Procedure, shortened: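 Human FXIIa incubated at 25° C with fluorogenic substrate H-DPro-Phe-Arg-AFC at its Km concentration and varying compound concentrations. Fluorescence release monitored over 5 min at 25° C; linear rate expressed as % of uninhibited activity to derive IC50.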

[1] = Pharmacokinetics following a single intravenous dose and a single oral dose in male Sprague-Dawley rats (oral bioavailability, half-life); assay type: in vivo; conditions: rat, plasma, 10% DMSO/10% Cremophor EL/80% SWFI; for bioavailability: read-out: F % (oral bioavailability)
Protocol: Pharmacokinetic studies of the compounds in Table 16 were performed to assess the pharmacokinetics following a single intravenous dose and a single oral dose in male Sprague-Dawley rats. Two rats were given a single intravenous dose of 1 mL/kg of a nominal 1 mg/mL (1 mg/kg) composition of test compound in 10% DMSO/10% Cremophor EL/80% SWFI vehicle. Example 2191 was dosed at 1 mL/kg of a nominal 2 mg/mL (2 mg/kg) using the same vehicle.
Two rats were given a single oral dose of 5 mL/kg of a nominal 1 mg/mL (5 mg/kg) composition of test compound in 10% DMSO/10% Cremophor EL/80% SWFI vehicle. Example 2191 was dosed at 5 mL/kg of a nominal 2 mg/mL (10 mg/kg) using the same vehicle.
Following intravenous dosing, blood samples were collected over a period of 12 h. Sample times were 2, 5, 15 and 30 min then 1, 2, 4, 6, and 12 h. Following oral dosing, blood samples were collected over a period of 24 h. Sample times were 5, 15 and 30 min then 1, 2, 4, 6, 8, 12 and 24 h.
Following collection, blood samples were centrifuged and the plasma fraction analysed for concentration of test compound by LCMS. Oral bioavailability and half-life calculations from these studies were obtained using Phoenix WinNonlin (v8.0) and are shown below: […]

Sequence of FXa (P00742 235-488): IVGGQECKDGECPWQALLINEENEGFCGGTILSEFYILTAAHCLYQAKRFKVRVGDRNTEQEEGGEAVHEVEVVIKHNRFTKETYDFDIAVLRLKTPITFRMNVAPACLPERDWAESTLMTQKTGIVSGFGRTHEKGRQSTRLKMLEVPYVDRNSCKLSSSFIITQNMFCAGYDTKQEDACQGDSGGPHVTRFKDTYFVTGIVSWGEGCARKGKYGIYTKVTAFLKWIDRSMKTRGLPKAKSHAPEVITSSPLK
Sequence of FXa (P00742 41-179 partner): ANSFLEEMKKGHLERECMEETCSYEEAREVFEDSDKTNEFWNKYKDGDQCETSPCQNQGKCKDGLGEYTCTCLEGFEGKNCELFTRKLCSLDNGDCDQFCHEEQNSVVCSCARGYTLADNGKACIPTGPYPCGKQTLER

| SMILES | IC50 (FXa) [µM] | IC50 (FXIa) [µM] | IC50 (Plasma Kallikrein) [µM] | IC50 (KLK1) [µM] | IC50 (Thrombin) [µM] | IC50 (Human Factor XIIa) [µM] | half-life [1] [h] | bioavailability [1] [%] |
| --- | --- | --- | --- | --- | --- | --- | --- | --- |
| CC(C)N1C[C@H]2C[C@@H]1CN2CCc1ccc(CNc2cccc3c(N)nccc23)c(F)c1 (stereo in doubt) [Example 2213, N5-[[2-fluoro-4-[2-[(1R,4R)-5-isopropyl-2,5-diazabicyclo[2.2.1]heptan-2-yl]ethyl]phenyl]methyl]isoquinoline-1,5-diamine] | > 40 | > 40 | 10 to 40 | 10 to 40 | > 40 | 0.1 to 0.3 | – | – |
| Cn1ccc(COc2cc(CNc3cccc4c(N)nccc34)ccn2)cc1=O [Example 4301, 4-[[4-[[(1-Amino-5-isoquinolyl)amino]methyl]-2-pyridyl]oxymethyl]-1-methyl-pyridin-2-one] | – | – | > 4 | – | – | 0.3 to 1 | 2.19 | 8.5 |
| CC(C)N1CCC(COc2cc(CNc3cccc4c(N)nccc34)ccn2)CC1 [Example 4299, N5-[[2-[(1-isopropyl-4-piperidyl)methoxy]-4-pyridyl]methyl]isoquinoline-1,5-diamine] | – | – | > 4 | – | – | 0.1 to 0.3 | 10.1 | 8.3 |
| CN1CCC(CCc2ccc(CNc3cccc4c(N)nccc34)cc2)CC1 [Example 2178, 5-N-({4-[2-(1-methylpiperidin-4-yl)ethyl]phenyl}methyl)isoquinoline-1,5-diamine] | > 40 | > 40 | 10 to 40 | – | > 40 | 0.01 to 0.1 | – | – |
| CN1CCC(OCc2ccc(CNc3ccc4cnccc4c3)cc2)CC1 [Example 2193, N-(4-(((1-methylpiperidin-4-yl)oxy)methyl)benzyl)isoquinolin-6-amine] | > 20 | > 20 | > 20 | – | > 20 | 3 to 10 | – | – |
| CN1CCC(CCc2ccc(CNc3ccc4c(N)nccc4c3)cc2)CC1 [Example 2177, N6-(4-(2-(1-methylpiperidin-4-yl)ethyl)benzyl)isoquinoline-1,6-diamine] | 3 to 10 | > 40 | 1 to 3 | – | 3 to 10 | 0.1 to 0.3 | – | – |
| CN1CCC(COc2ccc(CNc3ccc4cnccc4c3)cn2)CC1 [Example 1008, N-((6-((1-methylpiperidin-4-yl)methoxy)pyridin-3-yl)methyl)isoquinolin-6-amine] | > 20 | > 20 | 10 to 40 | – | > 20 | 3 to 10 | – | – |
| CC(C)N1CCC(COc2ccc(CNc3ccc4c(N)nccc4c3)cn2)CC1 [Example 1012, N6-((6-((1-isopropylpiperidin-4-yl)methoxy)pyridin-3-yl)methyl)isoquinoline-1,6-diamine] | 10 to 40 | > 20 | 1 to 3 | – | 3 to 10 | 0.1 to 0.3 | – | – |
| Nc1nccc2c(NCc3ccnc(OCC4CCn5ccnc5C4)c3)cccc12 (stereo not drawn) [Example 4298, N5-((2-((5,6,7,8-tetrahydroimidazo[1,2-a]pyridin-7-yl)methoxy)pyridin-4-yl)methyl)isoquinoline-1,5-diamine] | – | 10 to 40 | > 40 | 3 to 10 | > 40 | 0.01 to 0.1 | – | – |
| Nc1nccc2cc(NCc3ccnc(-c4cccc(CN5CCCC5)c4)c3)ccc12 [Example 5434, N6-((2-(3-(pyrrolidin-1-ylmethyl)phenyl)pyridin-4-yl)methyl)isoquinoline-1,6-diamine] | 1 to 3 | > 40 | 1 to 3 | – | 1 to 3 | 1 to 3 | – | – |
| Nc1nccc2cc(NCc3ccc(OCC4CCn5ccnc5C4)nc3)ccc12 (stereo not drawn) [Example 1006, N6-((6-((5,6,7,8-tetrahydroimidazo[1,2-a]pyridin-7-yl)methoxy)pyridin-3-yl)methyl)isoquinoline-1,6-diamine] | 1 to 3 | > 40 | 1 to 3 | – | 3 to 10 | 0.1 to 0.3 | – | – |
| CN1CCC(CCn2cc(CNc3ccc4c(N)nccc4c3)cn2)CC1 [Example 3254, N6-((1-(2-(1-methylpiperidin-4-yl)ethyl)-1H-pyrazol-4-yl)methyl)isoquinoline-1,6-diamine] | 3 to 10 | > 20 | 3 to 10 | – | 3 to 10 | 0.3 to 1 | – | – |
| CCN1CCC(COc2ccc(CNc3ccc4c(N)nccc4c3)cn2)CC1 [Example 1010, 6-N-({6-[(1-ethylpiperidin-4-yl)methoxy]pyridin-3-yl}methyl)isoquinoline-1,6-diamine] | 10 to 40 | > 40 | 3 to 10 | – | 10 to 40 | 0.1 to 0.3 | – | – |

Further lines, results first:

| IC50 (FXa) [µM] | IC50 (FXIa) [µM] | IC50 (Plasma Kallikrein) [µM] | IC50 (KLK1) [µM] | IC50 (Thrombin) [µM] | IC50 (Human Factor XIIa) [µM] | half-life [1] [h] | bioavailability [1] [%] | SMILES |
| --- | --- | --- | --- | --- | --- | --- | --- | --- |
| > 20 | > 20 | 10 to 40 | – | > 20 | 0.01 to 0.1 | – | – | CCN1CCC(OCc2ccc(CNc3cccc4c(N)nccc34)c(F)c2)CC1 [Example 2201, 5-N-[(4-{[(1-ethylpiperidin-4-yl)oxy]methyl}-2-fluorophenyl)methyl]isoquinoline-1,5-diamine] |
| > 40 | > 40 | 10 to 40 | 3 to 10 | 10 to 40 | 0.3 to 1 | – | – | CC(C)N1CC2(CN(Cc3ccc(CNc4ccc5c(N)nccc5c4)c(F)c3)C2)C1 [Example 1037, 6-N-{[2-fluoro-4-({6-isopropyl-2,6-diazaspiro[3.3]heptan-2-yl}methyl)phenyl]methyl}isoquinoline-1,6-diamine] |
| 10 to 40 | > 40 | 3 to 10 | – | 10 to 40 | 0.3 to 1 | – | – | Nc1nccc2cc(NCc3ccc(COC4CCN(C5CC5)CC4)cc3)ccc12 [Example 2195, 6-N-[(4-{[(1-cyclopropylpiperidin-4-yl)oxy]methyl}phenyl)methyl]isoquinoline-1,6-diamine] |
| 3 to 10 | > 20 | 3 to 10 | – | 10 to 40 | 0.1 to 0.3 | – | – | CN1CC2C[C@H]1C[C@H]2OCc1ccc(CNc2ccc3c(N)nccc3c2)c(F)c1 (single isomer, unassigned) [Example 2198, N6-(2-fluoro-4-((((4S*,5R*)-2-methyl-2-azabicyclo[2.2.1]heptan-5-yl)oxy)methyl)benzyl)isoquinoline-1,6-diamine] |
| 10 to 40 | > 40 | 10 to 40 | – | 10 to 40 | 1 to 3 | – | – | CN1CCC(OCc2ccc(CNc3ccc4c(N)nccc4c3)cc2)C(F)(F)C1 (stereo not drawn) [Example 2194, N6-(4-(((3,3-difluoro-1-methylpiperidin-4-yl)oxy)methyl)benzyl)isoquinoline-1,6-diamine] |
| 3 to 10 | > 40 | 3 to 10 | – | 3 to 10 | 0.1 to 0.3 | – | – | CN1CCC(OCc2ccc(CNc3ccc4c(N)nccc4c3)cc2)CC1 [Example 2185, N6-(4-(((1-methylpiperidin-4-yl)oxy)methyl)benzyl)isoquinoline-1,6-diamine] |
| 1 to 3 | > 40 | 3 to 10 | – | 3 to 10 | 0.1 to 0.3 | – | – | CN1CCC(OCc2ccc(CNc3ccc4c(N)nccc4c3)c(Cl)c2)CC1 [Example 2192, N6-(2-chloro-4-(((1-methylpiperidin-4-yl)oxy)methyl)benzyl)isoquinoline-1,6-diamine] |
| 3 to 10 | > 20 | 1 to 3 | – | 3 to 10 | 0.1 to 0.3 | – | – | CCN1CCC(OCc2ccc(CNc3ccc4c(N)nccc4c3)c(F)c2)CC1 [Example 2202, 6-N-[(4-{[(1-ethylpiperidin-4-yl)oxy]methyl}-2-fluorophenyl)methyl]isoquinoline-1,6-diamine] |
